{"source": "patent US20260308158A1", "about": "“TARGETING RNAS ASSOCIATED WITH TAUOPATHIES WITH SMALL MOLECULES” (University of Florida Research Foundation, Incorporated, priority 2023, published 2026)", "format_in_all_cases": "cell-based", "key": {"[1]": {"test_system": "DDPAC MAPT exon 10 mini-gene luciferase reporter", "experiment": "Luciferase reporter assay of exon 10 splicing, DDPAC mini-gene in HeLa cells", "experimental": "Luciferase-reporter Assay to Study Exon 10 Alternative Splicing. The exon 10 mini-genes, both WT and DDPAC and mutant thereof, fused to firefly luciferase, have been previously described.^18 HeLa cells were seeded in 60 mm diameter dishes and incubated for 12-16 h to 70% confluency. They were then transfected with WT, WT+I17T, DDPAC, or DDPAC+I17T luciferase reporter minigenes using JetPrime (Polyplus Transfection) per the manufacturer's recommended protocol and incubated for 4 h. After transfection, the cells were collected by trypsinization and re-seeded in 96-well plates at 0.2×10^5 cells per well, followed by treatment of compounds after 4 h. Compound stocks prepared in DMSO were diluted in growth medium and added to cells with final DMSO concentration at 0.1% (v/v). After a 48 h treatment period, the cells were washed with 1× DPBS. Each well was added with a mixture of 10 μL WST-1 reagent and 90 μL of growth medium. After incubation at 37° C. for 45 min, absorbance was measured at 450 and 690 nm. A690 as background was subtracted from A450 to obtain A450′. After removal of WST-1/DMEM from wells, the cells were washed again with 1×DPBS and treated with 100 μL of One-Glo EX reagent (Promega, E8110) per well. The plate was incubated at room temperature for 20 min and the luminescence was measured with a […] plate reader (1000 ms integration time). The resulted luminescence was normalized to A450′."}, "[2]": {"test_system": "DDPAC MAPT mini-gene (exon 10 splicing)", "experiment": "4R/3R MAPT mRNA by RT-qPCR, HeLa cells transfected with DDPAC mini-gene", "experimental": "RNA Isolation and Real-Time Quantitative PCR (RT-qPCR). HeLa cells were treated as described in the Luciferase Reporter assay to Study Exon 10 Alternative Splicing. LAN5 cells were seeded in 12-well plates at 0.2×10^6 cells per well, treated with compound or ASO, and incubated for 48 h. Compound stocks prepared in DMSO and ASO stocks prepared in water were diluted in growth medium and added to cells. Total RNA was extracted from cells and analyzed via RT-qPCR to determine levels of 3R and 4R tau mRNA. In brief, the cells were washed with 1×DPBS and then lysed in the well using 300 μL of Lysis Buffer provided in a Quick-RNA MiniPrep kit (Zymo Research), which was used to extract total RNA per the manufacturer's protocol including the on-column DNase I digestion. The concentration of total RNA was measured by NanoDrop 2000 (Thermo Fisher Scientific). Only samples with OD260/OD280>1.8 were carried forward for analysis. Reverse transcription (RT) was carried out on 200 ng of total RNA using a qScript cDNA synthesis kit (QuantaBio) in a total volume of 10 μL according to the manufacturer's protocol. […] 4R/3R ratio were analyzed using ΔΔCt method using Equation 2: […]"}, "[3]": {"test_system": "WT I17T MAPT mini-gene (exon 10 splicing)", "experiment": "4R/3R MAPT mRNA by RT-qPCR, HeLa cells transfected with WT I17T mini-gene", "experimental": "RNA Isolation and Real-Time Quantitative PCR (RT-qPCR). HeLa cells were treated as described in the Luciferase Reporter assay to Study Exon 10 Alternative Splicing. LAN5 cells were seeded in 12-well plates at 0.2×10^6 cells per well, treated with compound or ASO, and incubated for 48 h. Compound stocks prepared in DMSO and ASO stocks prepared in water were diluted in growth medium and added to cells. Total RNA was extracted from cells and analyzed via RT-qPCR to determine levels of 3R and 4R tau mRNA. In brief, the cells were washed with 1×DPBS and then lysed in the well using 300 μL of Lysis Buffer provided in a Quick-RNA MiniPrep kit (Zymo Research), which was used to extract total RNA per the manufacturer's protocol including the on-column DNase I digestion. The concentration of total RNA was measured by NanoDrop 2000 (Thermo Fisher Scientific). Only samples with OD260/OD280>1.8 were carried forward for analysis. Reverse transcription (RT) was carried out on 200 ng of total RNA using a qScript cDNA synthesis kit (QuantaBio) in a total volume of 10 μL according to the manufacturer's protocol. An Applied Biosystems QS5 384-well PCR system was used to complete qPCR reactions with Power SYBR Green Master Mix (Life Technologies), 600 nM each primer (Table S3), 20 ng of cDNA (1 μL of the RT reaction), in a total volume of 33 μL. Technical triplicates (10 μL each) were aliquoted into 384-well qPCR plates (Applied biosystems, 4483285). Subsequent qPCR analysis was performed using an Applied Biosystems QS5 384-well PCR system (software v.1.3.0). 4R/3R ratio were analyzed using ΔΔCt method using Equation 2: […]\nwhere ΔCt 4R or ΔCt 3R is the difference between the Ct values for the 4R or 3R MAPT mRNA and a housekeeping gene (18S rRNA) in total RNA from cells."}, "[4]": {"test_system": "WT MAPT mini-gene pre-mRNA", "experiment": "Chem-CLIP / C-Chem-CLIP in HeLa cells transfected with WT mini-gene", "settings": "HeLa, WT mini-gene", "experimental": "(§1) Measuring Cellular Occupancy by Chem-CLIP and C-Chem-CLIP. LAN5 cells were grown to ~80% confluency in 100 mm diameter dishes. HeLa cells were transfected as described in the Luciferase Reporter Assay to Study Exon 10 Alternative Splicing except they were re-plated in 100 mm diameter dishes and grown to ~80% confluency (~1 day). The cells were then treated with 1.5 μM of 3 or 4 for 12 h. For C-Chem-CLIP, dilutions of competing compounds 1 or 2 were pre-incubated with cells for 12 h prior to adding 3. After addition of 3, the cells were incubated for an additional 12 h. After the treatment period, whether for Chem-CLIP or C-Chem-CLIP studies, the cells were washed with 10 mL of 1×DPBS. Ice-cold 1×DPBS (10 mL) was then added to the plate followed by irradiation with 365 nm light in a UV Stratalinker 2400 (Stratagene). Cells were scraped with a cell scraper, transferred to a 15 mL conical vial, and collected by centrifugation. Total RNA was extracted using TRIzol LS Reagent (Invitrogen) per the manufacturer's protocol. […]\n(§2) RT-qPCR was performed on RNA samples before and after pull-down as described in Real-Time Quantitative PCR to enable calculation of fold enrichment in the pulled down samples. Relative fold enrichment of tau pre-mRNA was measured using Equation 3: […]"}, "[5]": {"test_system": "DDPAC MAPT mini-gene pre-mRNA", "experiment": "Chem-CLIP / C-Chem-CLIP in HeLa cells transfected with DDPAC mini-gene", "settings": "HeLa, DDPAC mini-gene", "experimental": "as §1, §2"}}, "data": [{"smiles": "COc1cc(N)ncc1CCCN(C)CCCn1cnc2c3ccccc3n(C)c2c1=O", "note": "[Compound 2, 3-(3-((3-(6-amino-4-methoxypyridin-3-yl)propyl)(methyl)amino)propyl)-5-methyl-3,5-dihydro-4H-pyrimido[5,4-b]indol-4-one]", "values": [{"measurement": "improvement in cellular luciferase reporter assay compared to 1", "setting": "[1]; 2 vs 1", "result": "at least 10 fold"}, {"measurement": "exclusion of exon 10 among eight conjugates (reduction of luciferase activity)", "setting": "[1]; DDPAC mini-gene, HeLa", "result": "excluded exon 10 to the greatest extent"}, {"measurement": "IC50", "setting": "[1]; Homo sapiens, HeLa, DDPAC mini-gene, 48 h, read-out: IC50, inhibition of luciferase activity (exon 10 inclusion)", "result": "600 ± 300", "unit": "nM"}, {"measurement": "PSI10 (PSI of MAPT exon 10) vs vehicle", "setting": "[2]; HeLa, DDPAC mini-gene", "result": "downregulated"}, {"measurement": "inhibition at 1.5 µM", "setting": "[2]; Homo sapiens, 2 at 1.5 μM, 48 h, HeLa DDPAC mini-gene, read-out: reduction of 4R/3R ratio (mRNA)", "result": "42 ± 3", "unit": "%"}, {"measurement": "PSI10 (PSI of MAPT exon 10) vs vehicle", "setting": "[3]", "result": "not WT I17T or DDPAC I17T mutant"}, {"measurement": "change in 4R/3R ratio (not statistically significant)", "setting": "[3]; 1 at 10 μM or 2 at 1.5 μM", "result": "< 16", "unit": "%"}, {"measurement": "competition of the interaction of 3 with reporter", "setting": "[4]", "result": "competed dose dependently"}, {"measurement": "competition of the interaction of 3 with reporter", "setting": "[5]", "result": "competed dose dependently"}]}]}
